Measured values as given in patent US20240247318A1, “METHODS FOR DETECTING INACTIVATION OF THE HOMOLOGOUS REC[…] (BRCA1/2) IN HUMAN TUMORS” (Institute Curie, priority 2012, published 2024).

Tested on: triple-negative breast tumors
Assay: clinical trial of Cisplatin treatment of patients with triple-negative breast tumors (GSE28330)
Assay type: in vivo, human
Settings: number of patients
Description: Two publically available data sets from clinical trial of Cisplatin treatment of patients with triple-negative breast tumors [GSE28330 GEO database][59] were processed and the number of LST_10 Mb was calculated for each tumor with good quality of measured profile. Genomic profiles were measured by two types of chip: Affymetrix Oncoscan 70K (Dataset 2) and Oncoscan 300K (Dataset 1). Information about mutational status of BRCA1/2 was available for some tumors. Response to treatment was measured by Miller-Payne score, where 4 and 5 were considered as “positive response”, while scores<4 were considered as “no response” Case by case and summary results are presented in Table 2 and Tables 3-5 (statistical comparisons were performed by the Fisher exact test).

Structure (SMILES): N.N.[Cl][Pt][Cl] [Cisplatin, cisplatin]
- Non Responders (BRCA1/2 inactivated tumors): 8
- Responders (BRCA1/2 inactivated tumors): 9
- Non Responders (LST_high tumors (LST_10 Mb)): 15
- Responders (LST_high tumors (LST_10 Mb)): 18
- Non Responders (LST_low tumors (LST_10 Mb)): 20
- Responders (LST_low tumors (LST_10 Mb)): 1
- Non Responders (NON BRCA1/2 or NA tumors): 27
- Responders (NON BRCA1/2 or NA tumors): 10
